Experimental findings from patent publication US11299515B2, “Optimized peptides for targeting human nerves and their use in image guided surgery, diagnostics and therapeutic” (The Regents of the University of California, priority 2017, dated 2022) are described below.

One assay concerns human sural nerve. In words: Topical application of FAM-labelled peptides on human nerve sections. The format is binding. The text has this:
To determine the affinity of phage selected peptides for binding to human nerve they were chemically synthesized by solid-phase synthesis and labeled with fluorescein at the C-terminus via a GGC linker. Peptides were topically applied to sectioned human sural nerve and human temporalis muscle to determine nerve to muscle contrast. […] To confirm binding and contrast of HNP401 for additional nerve types binding was compared in nerve and muscle with both HNP401 and NP41 on facial brachial plexus nerve (FIG. 9). […] FAM-HNP401 was additionally tested topically on ex-vivo tissue for labeling of mouse facial nerve with surrounding muscle (FIG. 10, J-M).
To test the affinity of selected phage display peptides for binding to human nerves, they were chemically synthesized by solid-phase synthesis and labeled with fluorescein at the C-terminus. Peptides were topically applied to sections of surgically harvested human sural nerve and temporalis muscle to determine nerve to muscle contrast for selected peptides and controls (FIG. 23). […] To quantify differential binding to nerve versus muscle, fluorescence signal intensity was measured for ROIs from the perineurium of select nerves and human temporalis muscle.
Human sural nerve, antebrachial nerve and laryngeal nerve and temporalis muscle were obtained under IRB protocol number 130837 for Dr. Quyen Nguyen. Human peripheral nerves (typically sural) were obtained from patients undergoing nerve resection procedures. Human nerves from prostate gland of two patients were acquired under Moores Cancer Centre Biorepository IRB protocol number 090401. Tissue were sectioned and mounted on glass slides or Cryojane tape. Tissue sections were placed in a humidifier chamber for 30 min before application of the peptide solution. Peptides were diluted to appropriate concentration in 0.5×HBSS prior to topical application. 50 μl of peptide solution of with known concentration (1 μM to 375 μM) were applied to 10 μm nerve sections on tape or slides and incubated for 30 minutes in a humidifier chamber. After incubation with peptide nerve sections were washed with twice with 0.5×HBSS and once with 1×PBS. A cover-slip was applied and slides were imaged immediately on either a Zeiss Lumar dissecting scope of Nikon A1 confocal microscope. For confocal imaging tissue sections of 10 μm thickness were imaged with 488 nm laser excitation 515 (25) and a 10× air objective and a […] size. For immunohistochemistry the confocal Images were acquired with a 20× air objective at 0.4 μm/pixel.
Image J was used to analyze and compare images acquired using the confocal microscope and the Lumar dissecting scope. For each experimental set where probes were compared, we kept the acquisition parameters identical so as to directly compare the data obtained. […] All raw image files for a given experimental cohort were loaded at the same time into Image J as 16-bit tiff images. We then levelled the image for tissue treated with FAM-HNP401. Once these levels were set, the settings are propagated to all images in one step using Image J. The brightest image is set as the benchmark for all other images in the cohort to avoid saturating when the leveling is propagated.

Assay [1] relates to autonomic (cavernosal) nerves from human prostate gland. In words: Topical application on autonomic nerves from human prostate gland. The format is binding. Conditions: 100 μM topical, two patients. The protocol: FAM-HNP401 and FAM-NP41 were then tested topically for binding to autonomic nerves, isolated from excised prostate glands of two human patients (FIGS. 12 and 13). […] Labelled fiber were confirmed as nerve using anti-neurofilament antibody SMI312 (red) and DAPI (blue) to show nuclear labeling (FIG. 12C). H&E staining was also done to confirm label tissue as nerve (FIG. 12D). Similar staining was obtained for peripheral sensory anti-brachial cutaneous nerve isolated from a human arm (FIGS. 12E-H).
FAM-HNP401 and FAM-NP41 were tested for binding to autonomic nerves, isolated from the prostate glands of two human patients (FIGS. 19 and 29). […] Quantitation was not done because only 2 patient samples were available for testing as nerve resection during radical prostatectomy is only performed in instances of gross capsular invasion. Labelled fibers were confirmed as nerve using anti-neurofilament antibody SMI312 (red) with DAPI (blue) to show nuclear labeling (FIG. 19C). H&E staining also confirmed label tissue as nerve by histology (FIG. 19D). […] Similar staining using FAM-HNP401 was obtained for another sensory nerve (anti-brachial cutaneous) isolated from human arm showing the broad nerve binding activity of HNP401 (FIGS. 19E-H).
Human sural nerve, antebrachial nerve and laryngeal nerve and temporalis muscle were obtained under IRB protocol number 130837 for Dr. Quyen Nguyen. […]

Residues, ends and D or L forms follow the SMILES beside them. *: point of attachment. Fluorescein(5-Mal) = O=C1OC2(c3ccc(O)cc3Oc3cc(O)ccc32)c2ccc(N3C(=O)CC(*)C3=O)cc21

On to `CC(=O)N[C@@H](CO)C(=O)NCC(=O)N[C@@H](CCC(N)=O)C(=O)N[C@H](C(=O)N1CCC[C@H]1C(=O)N[C@@H](Cc1c[nH]c2ccccc12)C(=O)N[C@@H](CCC(=O)O)C(=O)N[C@@H](CCC(=O)O)C(=O)N1CCC[C@H]1C(=O)N[C@@H](Cc1ccc(O)cc1)C(=O)N[C@@H](Cc1ccc(O)cc1)C(=O)N[C@H](C(=O)N[C@H](C(=O)N[C@@H](CCCCN)C(=O)N[C@@H](CCCCN)C(=O)N[C@@H](CO)C(=O)N[C@@H](CO)C(=O)NCC(=O)NCC(=O)N[C@@H](CSC1CC(=O)N(c2ccc3c(c2)C(=O)OC32c3ccc(O)cc3Oc3cc(O)ccc32)C1=O)C(N)=O)C(C)C)C(C)C)C(C)C` (stereo partly drawn) [FAM-HNP401] (Ac-SGQVPWEEPYYVVKKSSGGC(Fluorescein(5-Mal))-NH2; N-terminus and C-terminus assumed), for which, in the assay with human sural nerve (100 μM topical, human sural nerve), the “fluorescent signal intensity compared to FAM-NP41” value is given as 10.9 ×. For the same molecule, in the assay with human sural nerve (100 μM topical, n=4), the “fluorescent signal intensity (ROIs of perineurium)” value came to 1374.44±425.96. The “binding / contrast among peptides and controls screened on human nerve” value in the assay with human sural nerve (100 μM topical, sural nerve and temporalis muscle) is listed as “highest contrast”. For the same molecule, in the assay on human sural nerve (human sural nerve vs human temporalis muscle, 100 μM topical, n=4), the “Nerve to muscle contrast” value is recorded as 3.03±0.57. Also, the “signal for binding human nerve compared to FAM-NP41” value in the assay with human sural nerve (topical, human nerve) came out at 10 fold. The “fluorescent signal in human autonomic nerves compared to FAM-NP41” value in assay [1] is listed as “significantly higher fluorescent signal”.
